Key:
Test in all cases: KINOMEscan competition binding
Details in all cases: compound 0.5 µM
BMPR2 (human) = BMPR2 (human) (UniProt Q13873)
BRSK1 (human) = BRSK1 (human) (UniProt Q8TDC3)
CAMK1G (human) = CAMK1G (human) (UniProt Q96NX5)
CDK17 (human) = CDK17 (human) (UniProt Q00537)
CDK9 (human) = CDK9 (human) (UniProt P50750)
CSK (human) = CSK (human) (UniProt P41240)
DYRK1B (human) = DYRK1B (human) (UniProt Q9Y463)
DYRK2 (human) = DYRK2 (human) (UniProt Q92630)
EPHA7 (human) = EPHA7 (human) (UniProt Q15375)
EPHB6 (human) = EPHB6 (human) (UniProt O15197)
ERBB2 (human) = ERBB2 (human) (UniProt P04626)
FLT3 (human) = FLT3 (human) (UniProt P36888)
[1] = target: JAK1 JH1 catalytic (human) (UniProt P23458)
[2] = test system: KIT (human), P10721 [D816V]
MAP3K12 (human) = MAP3K12 (human) (UniProt Q12852)
MAP3K15 (human) = MAP3K15 (human) (UniProt Q6ZN16)
MAP3K2 (human) = MAP3K2 (human) (UniProt Q9Y2U5)
MAP3K6 (human) = MAP3K6 (human) (UniProt O95382)
MAPK9 (human) = MAPK9 (human) (UniProt P45984)
MARK1 (human) = MARK1 (human) (UniProt Q9P0L2)
MELK (human) = MELK (human) (UniProt Q14680)
MYLK (human) = MYLK (human) (UniProt Q15746)
MYLK2 (human) = MYLK2 (human) (UniProt Q9H1R3)
MYLK3 (human) = MYLK3 (human) (UniProt Q32MK0)
NIM1 (human) = NIM1 (human) (UniProt Q8IY84)
PAK3 (human) = PAK3 (human) (UniProt O75914)
[3] = test system: PIK3CA (human), P42336 [H1047Y]
PIP5K1A (human) = PIP5K1A (human) (UniProt Q99755)
PKMYT1 (human) = PKMYT1 (human) (UniProt Q99640)
PRKCE (human) = PRKCE (human) (UniProt Q02156)
RAF1 (human) = RAF1 (human) (UniProt P04049)
RIPK2 (human) = RIPK2 (human) (UniProt O43353)
ROCK1 (human) = ROCK1 (human) (UniProt Q13464)
RPS6KA6 KD1 (human) = RPS6KA6 KD1 (human) (UniProt Q9UK32)
SGK110 (human) = SGK110 (human) (UniProt P0C264)
SGK3 (human) = SGK3 (human) (UniProt Q96BR1)
SNRK (human) = SNRK (human) (UniProt Q9NRH2)
STK32A (human) = STK32A (human) (UniProt Q8WU08)
STK36 (human) = STK36 (human) (UniProt Q9NRP7)
STK4 (human) = STK4 (human) (UniProt Q13043)
TLK1 (human) = TLK1 (human) (UniProt Q9UKI8)
TNNI3K (human) = TNNI3K (human) (UniProt Q59H18)

Sequence of EPHA7 (human) (Q15375 whole entry, looked up): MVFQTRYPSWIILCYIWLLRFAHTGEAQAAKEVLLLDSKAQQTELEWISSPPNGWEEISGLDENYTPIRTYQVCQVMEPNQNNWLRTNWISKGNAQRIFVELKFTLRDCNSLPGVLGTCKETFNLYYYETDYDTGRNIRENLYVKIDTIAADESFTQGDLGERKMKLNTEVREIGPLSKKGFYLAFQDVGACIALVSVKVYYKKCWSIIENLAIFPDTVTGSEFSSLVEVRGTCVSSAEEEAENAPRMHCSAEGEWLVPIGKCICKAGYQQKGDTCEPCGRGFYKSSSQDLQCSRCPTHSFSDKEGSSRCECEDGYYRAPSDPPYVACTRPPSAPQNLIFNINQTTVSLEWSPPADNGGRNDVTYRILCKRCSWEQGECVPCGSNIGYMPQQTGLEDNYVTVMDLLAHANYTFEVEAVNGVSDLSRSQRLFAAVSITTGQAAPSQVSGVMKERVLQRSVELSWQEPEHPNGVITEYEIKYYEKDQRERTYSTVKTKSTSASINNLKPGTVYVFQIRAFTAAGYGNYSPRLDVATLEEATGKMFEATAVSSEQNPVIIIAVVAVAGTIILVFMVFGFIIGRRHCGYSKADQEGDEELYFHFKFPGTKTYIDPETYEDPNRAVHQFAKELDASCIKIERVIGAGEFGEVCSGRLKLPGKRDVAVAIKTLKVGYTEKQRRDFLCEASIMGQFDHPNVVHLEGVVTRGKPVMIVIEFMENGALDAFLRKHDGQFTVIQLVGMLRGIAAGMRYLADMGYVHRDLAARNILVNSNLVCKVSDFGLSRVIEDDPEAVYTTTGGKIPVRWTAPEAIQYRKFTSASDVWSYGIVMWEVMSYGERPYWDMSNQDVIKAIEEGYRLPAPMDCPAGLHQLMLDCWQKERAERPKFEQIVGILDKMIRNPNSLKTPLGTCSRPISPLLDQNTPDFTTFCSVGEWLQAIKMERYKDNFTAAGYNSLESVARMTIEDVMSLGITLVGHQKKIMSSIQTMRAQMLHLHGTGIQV
Sequence of STK36 (human) (Q9NRP7 whole entry, looked up): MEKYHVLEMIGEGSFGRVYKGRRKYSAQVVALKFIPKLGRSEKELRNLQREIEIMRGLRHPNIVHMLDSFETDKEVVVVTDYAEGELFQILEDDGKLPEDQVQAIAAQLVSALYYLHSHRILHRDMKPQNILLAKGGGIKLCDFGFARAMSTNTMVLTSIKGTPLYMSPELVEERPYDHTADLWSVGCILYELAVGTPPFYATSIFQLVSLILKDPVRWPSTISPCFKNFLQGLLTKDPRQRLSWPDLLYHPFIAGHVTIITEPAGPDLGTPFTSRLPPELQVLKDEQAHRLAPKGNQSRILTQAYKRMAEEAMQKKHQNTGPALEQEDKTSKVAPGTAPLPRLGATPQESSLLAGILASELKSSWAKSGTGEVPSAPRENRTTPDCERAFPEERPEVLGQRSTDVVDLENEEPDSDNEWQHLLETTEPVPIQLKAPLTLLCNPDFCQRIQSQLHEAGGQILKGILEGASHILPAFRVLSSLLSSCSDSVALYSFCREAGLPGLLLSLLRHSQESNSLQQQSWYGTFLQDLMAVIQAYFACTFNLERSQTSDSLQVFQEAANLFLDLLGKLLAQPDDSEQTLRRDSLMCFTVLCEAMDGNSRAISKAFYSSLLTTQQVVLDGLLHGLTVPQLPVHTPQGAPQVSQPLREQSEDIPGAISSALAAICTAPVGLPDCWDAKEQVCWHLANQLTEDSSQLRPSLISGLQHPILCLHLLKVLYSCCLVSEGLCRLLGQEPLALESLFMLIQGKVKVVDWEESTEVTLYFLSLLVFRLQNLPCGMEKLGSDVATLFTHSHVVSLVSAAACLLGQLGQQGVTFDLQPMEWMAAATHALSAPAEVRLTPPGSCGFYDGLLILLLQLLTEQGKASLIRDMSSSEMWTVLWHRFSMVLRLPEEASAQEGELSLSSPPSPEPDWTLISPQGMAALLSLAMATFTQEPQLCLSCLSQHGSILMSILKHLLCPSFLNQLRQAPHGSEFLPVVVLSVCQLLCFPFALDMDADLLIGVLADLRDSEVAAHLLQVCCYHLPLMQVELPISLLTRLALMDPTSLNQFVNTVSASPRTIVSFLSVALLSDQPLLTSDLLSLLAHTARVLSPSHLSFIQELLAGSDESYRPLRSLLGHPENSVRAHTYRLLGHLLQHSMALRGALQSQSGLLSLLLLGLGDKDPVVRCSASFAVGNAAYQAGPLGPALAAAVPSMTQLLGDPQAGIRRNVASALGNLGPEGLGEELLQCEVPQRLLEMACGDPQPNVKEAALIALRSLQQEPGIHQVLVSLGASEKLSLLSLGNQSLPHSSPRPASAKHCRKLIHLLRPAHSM
Sequence of PRKCE (human) (Q02156 whole entry, looked up): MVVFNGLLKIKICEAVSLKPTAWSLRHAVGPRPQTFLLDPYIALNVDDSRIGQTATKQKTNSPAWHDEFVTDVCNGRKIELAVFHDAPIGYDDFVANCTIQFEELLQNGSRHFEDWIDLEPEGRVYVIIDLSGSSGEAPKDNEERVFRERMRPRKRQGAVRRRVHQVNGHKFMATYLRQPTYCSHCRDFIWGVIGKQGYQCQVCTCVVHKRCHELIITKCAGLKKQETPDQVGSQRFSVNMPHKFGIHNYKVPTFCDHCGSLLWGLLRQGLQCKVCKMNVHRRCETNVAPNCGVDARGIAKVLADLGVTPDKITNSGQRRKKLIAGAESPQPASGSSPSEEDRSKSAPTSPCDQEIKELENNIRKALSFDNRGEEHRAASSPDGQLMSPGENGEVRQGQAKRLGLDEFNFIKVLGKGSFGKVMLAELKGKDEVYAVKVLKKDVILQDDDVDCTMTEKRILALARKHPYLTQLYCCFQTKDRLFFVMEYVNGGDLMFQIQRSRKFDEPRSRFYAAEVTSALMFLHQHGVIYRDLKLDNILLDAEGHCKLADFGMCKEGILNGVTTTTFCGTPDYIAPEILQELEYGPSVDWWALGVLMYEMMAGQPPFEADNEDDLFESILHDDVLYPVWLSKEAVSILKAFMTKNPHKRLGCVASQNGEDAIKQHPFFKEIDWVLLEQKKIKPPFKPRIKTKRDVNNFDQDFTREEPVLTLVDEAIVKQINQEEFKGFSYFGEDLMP
Sequence of BMPR2 (human) (Q13873 whole entry, looked up): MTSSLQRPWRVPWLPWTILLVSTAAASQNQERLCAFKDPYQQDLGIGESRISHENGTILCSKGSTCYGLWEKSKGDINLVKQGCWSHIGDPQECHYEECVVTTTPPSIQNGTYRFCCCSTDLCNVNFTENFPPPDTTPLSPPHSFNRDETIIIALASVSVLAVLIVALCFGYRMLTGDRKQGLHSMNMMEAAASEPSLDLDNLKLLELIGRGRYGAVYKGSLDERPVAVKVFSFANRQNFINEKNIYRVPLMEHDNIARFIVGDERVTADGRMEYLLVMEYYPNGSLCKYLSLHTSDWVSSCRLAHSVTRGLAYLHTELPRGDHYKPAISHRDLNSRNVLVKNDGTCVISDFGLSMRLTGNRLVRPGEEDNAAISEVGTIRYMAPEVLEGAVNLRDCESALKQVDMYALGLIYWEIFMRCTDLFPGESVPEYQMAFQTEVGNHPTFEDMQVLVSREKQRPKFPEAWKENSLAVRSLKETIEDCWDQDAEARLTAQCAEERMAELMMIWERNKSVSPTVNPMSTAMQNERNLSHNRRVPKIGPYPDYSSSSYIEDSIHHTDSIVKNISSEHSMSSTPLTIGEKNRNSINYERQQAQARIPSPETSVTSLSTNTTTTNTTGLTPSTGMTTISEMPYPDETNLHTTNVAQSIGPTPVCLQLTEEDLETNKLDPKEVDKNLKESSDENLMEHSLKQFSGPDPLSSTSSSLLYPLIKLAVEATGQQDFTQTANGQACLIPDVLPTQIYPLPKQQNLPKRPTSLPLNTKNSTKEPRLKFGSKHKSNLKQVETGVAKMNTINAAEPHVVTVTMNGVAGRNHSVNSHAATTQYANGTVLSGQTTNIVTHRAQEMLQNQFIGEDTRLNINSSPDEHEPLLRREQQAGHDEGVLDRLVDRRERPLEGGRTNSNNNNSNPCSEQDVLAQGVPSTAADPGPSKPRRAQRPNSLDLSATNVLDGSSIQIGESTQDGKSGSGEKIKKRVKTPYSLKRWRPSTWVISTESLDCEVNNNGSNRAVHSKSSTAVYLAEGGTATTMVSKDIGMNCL
Sequence of PKMYT1 (human) (Q99640 whole entry, looked up): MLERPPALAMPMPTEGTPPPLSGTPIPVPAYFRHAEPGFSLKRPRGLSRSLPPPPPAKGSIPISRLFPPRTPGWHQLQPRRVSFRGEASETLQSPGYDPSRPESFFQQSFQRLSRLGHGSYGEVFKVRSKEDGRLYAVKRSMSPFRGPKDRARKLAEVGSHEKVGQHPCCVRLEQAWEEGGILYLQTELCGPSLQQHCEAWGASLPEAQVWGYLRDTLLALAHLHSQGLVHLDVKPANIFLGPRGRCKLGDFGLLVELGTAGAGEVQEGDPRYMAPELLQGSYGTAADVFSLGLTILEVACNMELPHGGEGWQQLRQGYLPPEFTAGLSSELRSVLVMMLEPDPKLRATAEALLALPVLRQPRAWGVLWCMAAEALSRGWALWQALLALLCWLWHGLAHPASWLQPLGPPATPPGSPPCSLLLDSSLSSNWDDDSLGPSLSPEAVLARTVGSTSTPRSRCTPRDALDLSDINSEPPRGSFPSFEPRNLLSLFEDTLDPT
Sequence of NIM1 (human) (Q8IY84 whole entry, looked up): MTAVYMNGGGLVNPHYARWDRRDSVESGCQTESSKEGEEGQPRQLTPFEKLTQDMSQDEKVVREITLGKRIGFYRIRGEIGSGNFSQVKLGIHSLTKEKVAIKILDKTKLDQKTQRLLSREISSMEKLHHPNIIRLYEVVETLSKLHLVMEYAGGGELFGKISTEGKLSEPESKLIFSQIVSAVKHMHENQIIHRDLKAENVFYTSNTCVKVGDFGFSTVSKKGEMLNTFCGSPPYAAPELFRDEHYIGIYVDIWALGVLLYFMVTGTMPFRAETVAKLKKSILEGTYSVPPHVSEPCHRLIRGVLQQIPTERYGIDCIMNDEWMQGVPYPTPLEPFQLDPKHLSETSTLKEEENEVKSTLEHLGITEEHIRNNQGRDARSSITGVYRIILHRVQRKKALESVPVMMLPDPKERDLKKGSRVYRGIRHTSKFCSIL

`Cn1c2ccccc2c2c3c(c4c5ccccc5n(CCC#N)c4c21)CNC3=O` gave a kinase still bound, per cent of control (BMPR2 (human)) of 100%, a kinase still bound, per cent of control (BRSK1 (human)) of 51% and a kinase still bound, per cent of control (CAMK1G (human)) of 66%. It also gave a kinase still bound, per cent of control (CDK17 (human)) of 100%, a kinase still bound, per cent of control (CDK9 (human)) of 100% and a kinase still bound, per cent of control (CSK (human)) of 100%. The kinase still bound, per cent of control (DYRK1B (human)) was 12%, the kinase still bound, per cent of control (DYRK2 (human)) was 37% and the kinase still bound, per cent of control (EPHA7 (human)) was 81%. The kinase still bound, per cent of control (EPHB6 (human)) was 50%, the kinase still bound, per cent of control (ERBB2 (human)) was 87% and the kinase still bound, per cent of control (FLT3 (human)) was 1.4%. It also gave a kinase still bound, per cent of control [1] of 10%, a kinase still bound, per cent of control [2] of 2% and a kinase still bound, per cent of control (MAP3K12 (human)) of 89%. The kinase still bound, per cent of control (MAP3K15 (human)) was 97%, the kinase still bound, per cent of control (MAP3K2 (human)) was 0.1% and the kinase still bound, per cent of control (MAP3K6 (human)) was 62%. It also gave a kinase still bound, per cent of control (MAPK9 (human)) of 46%, a kinase still bound, per cent of control (MARK1 (human)) of 64% and a kinase still bound, per cent of control (MELK (human)) of 22%. It also gave a kinase still bound, per cent of control (MYLK (human)) of 56%, a kinase still bound, per cent of control (MYLK2 (human)) of 58% and a kinase still bound, per cent of control (MYLK3 (human)) of 100%. For the same compound, the kinase still bound, per cent of control (NIM1 (human)) was 100%, the kinase still bound, per cent of control (PAK3 (human)) was 70% and the kinase still bound, per cent of control [3] was 100%. The kinase still bound, per cent of control (PIP5K1A (human)) was 1.6%, the kinase still bound, per cent of control (PKMYT1 (human)) was 100% and the kinase still bound, per cent of control (PRKCE (human)) was 66%. The kinase still bound, per cent of control (RAF1 (human)) was 100%, the kinase still bound, per cent of control (RIPK2 (human)) was 100% and the kinase still bound, per cent of control (ROCK1 (human)) was 22%. The kinase still bound, per cent of control (RPS6KA6 KD1 (human)) was 4.7%, the kinase still bound, per cent of control (SGK110 (human)) was 13% and the kinase still bound, per cent of control (SGK3 (human)) was 72%. It also gave a kinase still bound, per cent of control (SNRK (human)) of 69%, a kinase still bound, per cent of control (STK32A (human)) of 94% and a kinase still bound, per cent of control (STK36 (human)) of 100%. The kinase still bound, per cent of control (STK4 (human)) was 5.4%, the kinase still bound, per cent of control (TLK1 (human)) was 83% and the kinase still bound, per cent of control (TNNI3K (human)) was 100%.
